In patent US11326168B2, “Use of potassium channel inhibitor for treating depression” (ZHEJIANG UNIVERSITY, priority 2017, dated 2022):

Key:
Kir4.1 = molecular target: T1, Kir4.1 (Homo sapiens, UniProt P78508); conditions: Ohno et al., 2007; Wang et al., 2006; Kharade et al., 2018; cited from earlier work
T1 sequence (P78508 1-379): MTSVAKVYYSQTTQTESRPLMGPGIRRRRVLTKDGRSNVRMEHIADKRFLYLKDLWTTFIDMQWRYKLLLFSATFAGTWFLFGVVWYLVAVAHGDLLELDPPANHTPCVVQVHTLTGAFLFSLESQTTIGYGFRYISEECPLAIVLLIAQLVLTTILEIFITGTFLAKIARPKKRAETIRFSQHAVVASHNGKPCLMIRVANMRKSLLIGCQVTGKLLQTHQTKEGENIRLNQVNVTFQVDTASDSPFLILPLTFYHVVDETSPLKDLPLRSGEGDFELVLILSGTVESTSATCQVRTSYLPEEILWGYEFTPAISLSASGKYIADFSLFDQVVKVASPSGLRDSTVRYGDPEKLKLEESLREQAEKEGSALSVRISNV

LHb neurons = assay type: cell-based

Row | Structure (SMILES) | Kir4.1 inhibition (literature statement) (Kir4.1) | firing frequency of bursting neurons (LHb neurons) | RMPs of tonic and burst-firing LHb neurons (LHb neurons; BaCl2 100 μM, about 10 min bath perfusion)
1 | CN[C@H]1CC[C@@H](c2ccc(Cl)c(Cl)c2)c2ccccc21 [sertraline] | inhibit Kir4.1, yet with lower affinity |  | 
2 | CN(C)CCCN1c2ccccc2CCc2ccccc21 [imipramine] | inhibit Kir4.1, yet with lower affinity |  | 
3 | COCCCC/C(=N\OCCN)c1ccc(C(F)(F)F)cc1 [fluvoxamine] | inhibit Kir4.1, yet with lower affinity |  | 
4 | CNCCCN1c2ccccc2CCc2ccccc21 [desipramine] | inhibit Kir4.1, yet with lower affinity |  | 
5 | [Ba+2].[Cl-].[Cl-] [BaCl2] |  | dramatic increase | depolarized
6 | CNCCC(Oc1ccc(C(F)(F)F)cc1)c1ccccc1 (stereo not shown) [fluoxetine] | inhibit Kir4.1, yet with lower affinity |  | 
7 | CNCCC=C1c2ccccc2CCc2ccccc21 [nortriptyline] | inhibit Kir4.1, yet with lower affinity |  | 
8 | CC(C)c1ccc(OCC(=O)NC2CC(C)(C)NC(C)(C)C2)c(Br)c1 [VU0134992] | highly selective and specific Kir4.1 inhibitor |  | 
9 | CN(C)CCC=C1c2ccccc2CCc2ccccc21 [amitriptyline] | inhibit Kir4.1, yet with lower affinity |  | 
